We go through 44 compounds from ChEMBL document CHEMBL1133008, “AMP deaminase inhibitors. 2. Initial discovery of a non-nucleotide transition-state inhibitor series” (J Med Chem, 2000).

In general, Ki refers to the dissociation constant of the complex between target and ligand, obtained from inhibition or displacement.

For this assay, the target named is T1, Adenosine deaminase (Bos taurus, UniProt P56658).
T1 sequence (P56658 whole entry): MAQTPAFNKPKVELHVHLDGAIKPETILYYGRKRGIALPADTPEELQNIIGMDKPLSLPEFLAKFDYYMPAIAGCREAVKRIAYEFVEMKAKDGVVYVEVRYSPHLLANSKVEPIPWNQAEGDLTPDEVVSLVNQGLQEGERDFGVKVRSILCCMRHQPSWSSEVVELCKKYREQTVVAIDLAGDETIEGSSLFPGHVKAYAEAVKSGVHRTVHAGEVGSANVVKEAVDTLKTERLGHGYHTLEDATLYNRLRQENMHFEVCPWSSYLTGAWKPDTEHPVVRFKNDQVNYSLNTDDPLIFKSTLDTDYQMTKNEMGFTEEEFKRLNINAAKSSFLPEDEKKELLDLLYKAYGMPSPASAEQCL
Description: Evaluated for the inhibition of calf intestinal Adenosine deaminase (ADA).
Consider `N#CCCCn1cnc2c1N=CNCC2O` (centres undefined), for which the inhibition constant Ki is > 7.5 µM. In turn, `N#CCCCCCCn1cnc2c1NC=NCC2O` (centres undefined) had an inhibition constant Ki of 1 µM. The same measure for `CC(C)CC(CCCCn1cnc2c1NC=NCC2O)(CC(C)C)C(=O)O` (centres undefined): 120 µM; for `O=C(O)C(CCCCn1cnc2c1N=CNCC2O)c1cccc(Br)c1` (centres undefined): > 7.5 µM; for `CCOC(=O)C(CCCCn1cnc2c1NC=NCC2O)c1cccc(Br)c1` (centres undefined): > 7.5 µM. Consider `OCCCCCCn1cnc2c1N=CNCC2O` (centres undefined), for which affinity was put at a Ki of 3.6 µM. The same measure for `O=P(O)(O)CCCCCn1cnc2c1NC=NCC2O` (centres undefined): > 500 µM; for `CCCCCCCCn1cnc2c1N=CNCC2O` (centres undefined): 0.45 µM; for `O=C(O)C(CCCCn1cnc2c1N=CNCC2O)c1ccccc1` (centres undefined): > 7.5 µM.

As to `O=C(O)C(CCCCn1cnc2c1NC=NCC2O)Cc1ccc(Cl)cc1` (centres undefined), the inhibition constant (Ki) was > 7.5 µM. As for `COC(=O)CCCCCCCn1cnc2c1N=CNCC2O` (centres undefined), the figure is 0.95 µM. In the case of `CCn1cnc2c1NC=NCC2O` (centres undefined), the Ki is 28 µM.

In turn, `NC(=O)CCCCCn1cnc2c1NC=NCC2O` (centres undefined) gave a Ki of 5.9 µM. As for `O=C(O)CCCCCn1cnc2c1N=CNCC2O` (centres undefined), the figure is 280 µM; as for `O=C(O)C1(CCCCn2cnc3c2N=CNCC3O)Cc2ccccc2C1` (centres undefined), > 7.5 µM. The same measure for `COC(=O)CCCCn1cnc2c1N=CNCC2O` (centres undefined): 3.5 µM; for `CCOC(=O)C(C)(CCCCn1cnc2c1NC=NCC2O)Cc1cccc(Br)c1` (centres undefined): > 7.5 µM; for `CCOC(=O)C(CCCCn1cnc2c1NC=NCC2O)c1ccccc1` (centres undefined): > 7.5 µM.

As for `O=C(O)C(CCCCn1cnc2c1NC=NCC2O)Cc1cccc(Br)c1` (centres undefined), the Ki is > 7.5 µM.

Consider `CC(CCCCn1cnc2c1N=CNCC2O)(Cc1cccc(Br)c1)C(=O)O` (stereo in doubt; 7v), for which the Ki is > 7.5 µM.

For the compound `O=C(O)CCCOCn1cnc2c1NC=NCC2O` (centres undefined), the inhibitory constant (Ki) was > 500 µM. Take `CCCn1cnc2c1NC=NCC2O` (centres undefined): the Ki is > 20 µM.

In the case of `CC(C)(CCCCn1cnc2c1NC=NCC2O)C(=O)O` (centres undefined), the inhibition constant Ki was > 7.5 µM. With `O=C(O)CCCCCCCn1cnc2c1NC=NCC2O` (centres undefined), the Ki is > 7.5 µM. Regarding `O=P(O)(O)CCCCCCn1cnc2c1N=CNCC2O` (centres undefined), the Ki was > 7.5 µM. Turning to `OCCCn1cnc2c1N=CNCC2O` (centres undefined), the Ki was > 7.5 µM. For the compound `OCCCCCn1cnc2c1NC=NCC2O` (centres undefined), the Ki amounted to 4.7 µM.

For the compound `OC1CN=CNc2c1ncn2CCCCCc1nnn[nH]1` (centres undefined), the inhibitory constant (Ki) is > 7.5 µM. As for `CCOC(=O)CCCCCn1cnc2c1NC=NCC2O` (centres undefined), the figure is 3 µM; as for `O=C(O)C(CCCCn1cnc2c1N=CNCC2O)Cc1cccc(Cl)c1` (centres undefined), > 7.5 µM; as for `O=C(O)CCCCCCn1cnc2c1N=CNCC2O` (centres undefined), 250 µM.

Turning to `OCCCCn1cnc2c1N=CNCC2O` (centres undefined), the Ki came out at 6.3 µM.

In the case of `CCCCn1cnc2c1NC=NCC2O` (centres undefined), the affinity corresponds to a Ki of 17 µM. As to `CCOC(=O)C(CCCCn1cnc2c1NC=NCC2O)Cc1cccc(Br)c1` (centres undefined), the inhibitory constant (Ki) is > 7.5 µM.

As to `COP(=O)(O)CCCCCCn1cnc2c1NC=NCC2O` (centres undefined), the Ki was > 500 µM. As for `OCCn1cnc2c1NC=NCC2O` (centres undefined), the figure is > 7.5 µM. As for `OC1CN=CNc2c1ncn2Cc1ccccc1` (centres undefined), the figure is 6 µM; as for `O=C(O)C(CCCCn1cnc2c1NC=NCC2O)Cc1ccccc1` (centres undefined), > 1000 µM; as for `O=C(O)CCCCn1cnc2c1NC=NCC2O` (centres undefined), > 7.5 µM. As for `O=C(O)C(CCCCn1cnc2c1NC=NCC2O)(c1ccccc1)c1ccccc1` (centres undefined), the figure is > 7.5 µM.

`O=C(O)C(CCCCn1cnc2c1NC=NCC2O)Cc1ccc(Br)cc1` (centres undefined): the inhibition constant (Ki) is > 7.5 µM. The same measure for `O=C(O)C(CCCCn1cnc2c1N=CNCC2O)Cc1ccccc1Br` (centres undefined): > 7.5 µM. The same measure for `CC(CCCCn1cnc2c1N=CNCC2O)(Cc1cccc(Br)c1)C(=O)O` (stereo in doubt; 7w): > 7.5 µM; for `N#CCCCCn1cnc2c1N=CNCC2O` (centres undefined): 14 µM.
